Consider 4 compounds from patent US8841382B2, “Hyperbranched polyethers/dendrimers for solubilzation of sparingly soluble active ingredients” (BASF SE, priority 2010, dated 2014).

In general, solubility refers to how much of the substance goes into solution per volume.

This series in a line: Measurement of the solubilization of active ingredients by amphiphiles. The class given is physicochemical. The following applies: thermodynamic from solid. An excerpt:
After a rest time of one hour, excess (i.e. unsolubilized) active ingredient was removed by centrifuging. The resulting clear or opaque solution was subsequently analyzed for its active ingredient content by means of UV spectroscopy. The wavelengths of the UV spectroscopy measurement are compiled in table 1.

[1] abbreviates: distilled water without polymer, room temperature, stirred 24 h, UV spectroscopy, read-out: Solubility of active ingredient, no polymer (noninventive).

SMILES strings stand for the structures. Converted amounts (≈) assume the structure as drawn. Read-outs that look alike come from different tables or passages of the source.

As to `NC(=O)N1c2ccccc2C=Cc2ccccc21` [Carbamazepine], the solubility at 24 h under setting [1] stood at 140 µg/mL (≈ 593 µM).

As for `N#Cc1nn(-c2c(Cl)cc(C(F)(F)F)cc2Cl)c(N)c1[S+]([O-])C(F)(F)F` (stereo not shown) [Fipronil], the solubility at 24 h (water) came to 3 µg/mL (≈ 6.86 µM).

In the case of `CN1C(C(=O)Nc2ccccn2)=C(O)c2ccccc2S1(=O)=O` [Piroxicam], under setting [1], the solubility at 24 h was 21 µg/mL (≈ 63.4 µM).

With `COC(=O)N(OC)c1ccccc1COc1ccn(-c2ccc(Cl)cc2)n1` [Pyraclostrobin], the solubility at 24 h under setting [1] stood at 22.5 µg/mL (≈ 58 µM).
